Active and inactive are the calls of the source. No rule for the calls is given here.
Target: BioA, adenosylmethionine-8-amino-7-oxononanoate aminotransferase (Mycobacterium tuberculosis)
Test: BioA aminotransferase inhibition, biochemical, coupled fluorescence displacement, 20-point, dry powder, dose response (AID 743357)
Conditions: coupled fluorescence displacement assay
[1] = measured here: test 2 replicate AC50
[2] = measured here: test 1 replicate AC50

In the case of O=C(c1ccc2c(c1)OCO2)N1CCN(c2ccc(OC(F)(F)F)cc2)CC1, the “activity change, negative = inhibition” value (at 10 µM (top of the series)) is reported as “inactive”.

With COc1ccccc1NC(=O)N1CC[C@@H]2[C@@H](CO)N(C)c3ccc(-c4ccc(F)cc4)cc3[C@@H]21 the “activity change, negative = inhibition” value (at 10 µM (top of the series)) was “inactive”.

COc1ccccc1C(=O)N1CCN(c2ccc(C(C)=O)cc2)CC1 was tested, and the “activity change, negative = inhibition” value (at 10 µM (top of the series)) was “inactive” and the AC50 [1] was greater than 20000 nM.

For O=C(c1ccc2c(c1)OCO2)N1CCN(c2ccc(C(F)(F)F)cc2)CC1, the “activity change, negative = inhibition” value (at 10 µM (top of the series)) was “inactive” and the AC50 [2] was greater than 20000 nM.

In the case of CCCNC(=O)N1CC[C@@H]2[C@@H](CO)N(C)c3ccc(-c4ccc(F)cc4)cc3[C@@H]21, the “activity change, negative = inhibition” value (at 10 µM (top of the series)) is reported as “inactive” and the AC50 [1] is reported as greater than 20000 nM.

In the case of CN1c2ccc(-c3cccc(F)c3)cc2[C@H]2[C@H](CCN2C(=O)c2ccc3c(c2)OCO3)[C@@H]1CO, the “activity change, negative = inhibition” value (at 10 µM (top of the series)) is reported as “inactive”.

CC(=O)c1ccc(N2CCN(S(=O)(=O)c3ccc4c(c3)OCO4)CC2)cc1 was tested, and the “activity change, negative = inhibition” value (at 10 µM (top of the series)) was “inactive”.

CC(=O)c1ccc(N2CCN(C(=O)c3ccc4snnc4c3)CC2)cc1 gave an AC50 of 1850 nM and an AC50 [2] of 1850 nM.

For CNS(=O)(=O)c1ccc(N2CCN(C(=O)c3ccc4c(c3)OCO4)CC2)cc1, the “activity change, negative = inhibition” value (at 10 µM (top of the series)) was “inactive”.

With COc1ccc(NC(=O)N2CC[C@@H]3[C@@H](CO)N(C)c4ccc(-c5cccc(F)c5)cc4[C@@H]32)cc1 the “activity change, negative = inhibition” value (at 10 µM (top of the series)) was “inactive”.

In the case of CC(=O)c1ccc(N2CCN(C(=O)c3ccc4c(c3)OC(C)(C)O4)CC2)cc1, the “activity change, negative = inhibition” value (at 10 µM (top of the series)) is reported as “inactive”.

With CC(=O)c1ccc(NCCNC(=O)c2ccc3c(c2)OCO3)cc1 the “activity change, negative = inhibition” value (at 10 µM (top of the series)) was “inactive”.

In the case of CN(C)S(=O)(=O)c1ccc(N2CCN(C(=O)c3ccc4c(c3)OCO4)CC2)cc1, the “activity change, negative = inhibition” value (at 10 µM (top of the series)) is reported as “inactive”.

COC(=O)CCCCCCC(=O)N1CC[C@@H]2[C@@H](CO)N(C)c3ccc(-c4cccc(F)c4)cc3[C@@H]21 was tested, and the “activity change, negative = inhibition” value (at 10 µM (top of the series)) was “inactive” and the AC50 [1] was greater than 20000 nM.

CN1c2ccc(-c3cccc(F)c3)cc2[C@@H]2[C@@H](CCN2C(=O)c2ccc3c(c2)OCO3)[C@@H]1CO was tested, and the “activity change, negative = inhibition” value (at 5.6 µM (top of the series)) was “inactive”.

For CN1c2ccc(-c3ccc(F)cc3)cc2[C@H]2[C@H](CCN2C(=O)Nc2ccc(F)cc2)[C@H]1CO, the “activity change, negative = inhibition” value (at 10 µM (top of the series)) was “inactive”.

For CC(=O)c1ccc(N2CCN(C(=O)Nc3ccc4c(c3)OCO4)CC2)cc1, the “activity change, negative = inhibition” value (at 10 µM (top of the series)) was “inactive” and the AC50 [2] was greater than 20000 nM.

CC(=O)c1ccc(N2CC3(CN(C(=O)c4ccc5c(c4)OCO5)C3)C2)cc1 was tested, and the “activity change, negative = inhibition” value (at 10 µM (top of the series)) was “inactive”.

CN1c2ccc(-c3cccc(F)c3)cc2[C@H]2[C@H](CCN2C(=O)Nc2ccccc2F)[C@H]1CO was tested, and the “activity change, negative = inhibition” value (at 10 µM (top of the series)) was “inactive”.

With COc1cccc(NC(=O)N2CC[C@@H]3[C@@H](CO)N(C)c4ccc(-c5cccc(F)c5)cc4[C@@H]32)c1 the “activity change, negative = inhibition” value (at 10 µM (top of the series)) was “inactive”.

For CN1c2ccc(-c3cccc(F)c3)cc2[C@H]2[C@H](CCN2C(=O)Cc2ccccc2)[C@H]1CO, the “activity change, negative = inhibition” value (at 10 µM (top of the series)) was “inactive”.

CCC(=O)N1CC[C@@H]2[C@@H](CO)N(C)c3ccc(-c4ccc(F)cc4)cc3[C@@H]21 showed an AC50 of 2820 nM and an AC50 [1] of 2820 nM.

In the case of CC(=O)c1ccc(N2CCN(C(=O)c3ccc4c(c3)OCO4)CC2)cc1, the AC50 is reported as 49.7 nM, the AC50 [2] is reported as 30.1 nM and the AC50 [1] is reported as 69.2 nM.

In the case of CNC(=O)c1ccc(N2CCN(C(=O)c3ccc4c(c3)OCO4)CC2)cc1, the “activity change, negative = inhibition” value (at 10 µM (top of the series)) is reported as “inactive” and the AC50 [1] is reported as greater than 20000 nM.

With CCCCCCCC(=O)N1CC[C@@H]2[C@@H](CO)N(C)c3ccc(-c4cccc(F)c4)cc3[C@@H]21 the “activity change, negative = inhibition” value (at 10 µM (top of the series)) was “inactive”.

Compound COc1cc(C(=O)N2CCN(c3ccc(C(C)=O)cc3)CC2)cc2c1OCO2 has an AC50 of 181 nM and an AC50 [2] of 181 nM.

CC(=O)c1ccc(N2CCN(C(=O)c3ccc4c(c3C)OCO4)CC2)cc1 gave an AC50 of 53.7 nM and an AC50 [2] of 53.7 nM.

CC(=O)c1ccc(N2CCN(C(=O)c3cc4c(cn3)OCO4)CC2)cc1 was tested, and the “activity change, negative = inhibition” value (at 10 µM (top of the series)) was “inactive” and the AC50 [2] was greater than 20000 nM.

O=C(c1ccc2c(c1)OCO2)N1CCN(c2ccc(S(=O)(=O)C(F)(F)F)cc2)CC1 was tested, and the “activity change, negative = inhibition” value (at 10 µM (top of the series)) was “inactive”.

In the case of COc1ccccc1NC(=O)N1CC[C@@H]2[C@@H](CO)N(C)c3ccc(-c4cccc(F)c4)cc3[C@@H]21, the “activity change, negative = inhibition” value (at 10 µM (top of the series)) is reported as “inactive”.

With CN1c2ccc(-c3ccc(F)cc3)cc2[C@H]2[C@H](CCN2C(=O)Cc2ccccn2)[C@H]1CO the “activity change, negative = inhibition” value (at 10 µM (top of the series)) was “inactive”.

In the case of CC(=O)c1ccc(N2CC3CC2CN3C(=O)c2ccc3c(c2)OCO3)cc1 (stereo not given), the “activity change, negative = inhibition” value (at 10 µM (top of the series)) is reported as “inactive” and the AC50 [2] is reported as greater than 20000 nM.

With CN1c2ccc(-c3cccc(F)c3)cc2[C@H]2[C@H](CCN2C(=O)Cc2cccnc2)[C@H]1CO the “activity change, negative = inhibition” value (at 10 µM (top of the series)) was “inactive” and the AC50 [1] was greater than 20000 nM.

With CN1c2ccc(-c3ccc(F)cc3)cc2[C@H]2[C@H](CCN2C(=O)Nc2cc(F)ccc2F)[C@H]1CO the “activity change, negative = inhibition” value (at 10 µM (top of the series)) was “inactive”.

Compound CC(=O)c1ccc(N2CCN(C(=O)c3ccc4c(c3)OCO4)[C@H](C)C2)cc1 has an AC50 of 55.3 nM and an AC50 [1] of 55.3 nM.

Compound CC(=O)c1ccc(N2CCN(C(=O)c3ccc4ocnc4c3)CC2)cc1 has an AC50 of 198 nM and an AC50 [2] of 198 nM.

In the case of CN1c2ccc(-c3ccc(F)cc3)cc2[C@H]2[C@H](CCN2C(=O)Cc2cccnc2)[C@H]1CO, the “activity change, negative = inhibition” value (at 9 µM (top of the series)) is reported as “inactive”.

Work on COCC(=O)N1CC[C@@H]2[C@@H](CO)N(C)c3ccc(-c4cccc(F)c4)cc3[C@@H]21 yielded an AC50 of 55.4 nM and an AC50 [1] of 55.4 nM.

CC(=O)c1ccc(N2CCN(C(=O)c3cccc4c3OCO4)CC2)cc1 gave an AC50 of 1580 nM and an AC50 [2] of 1580 nM.

CC(=O)c1ccc(N2CCN(C(=O)c3ccc4c(c3)OC(F)(F)O4)CC2)cc1 was tested, and the “activity change, negative = inhibition” value (at 10 µM (top of the series)) was “inactive”.

CC(=O)c1ccc(N2CCN(C(=O)c3ccc(Cl)c(Cl)c3)CC2)cc1 was tested, and the AC50 was 217 nM and the AC50 [2] was 217 nM.

In the case of CC(=O)c1ccc(N2CCN(C(=O)c3cc4c(cc3C)OCO4)CC2)cc1, the AC50 is reported as 1090 nM and the AC50 [2] is reported as 1090 nM.

CC(=O)c1ccc(N2CCN(C(=O)c3cc4c(cc3Cl)OCO4)CC2)cc1 was tested, and the AC50 was 6570 nM and the AC50 [2] was 6570 nM.

Work on CC(=O)c1ccc(N2CCN(C(=O)c3ccccc3F)CC2)cc1 yielded an AC50 of 6400 nM and an AC50 [1] of 6400 nM.

With CC(C)NC(=O)N1CC[C@@H]2[C@@H](CO)N(C)c3ccc(-c4ccc(F)cc4)cc3[C@@H]21 the “activity change, negative = inhibition” value (at 10 µM (top of the series)) was “inactive” and the AC50 [1] was greater than 20000 nM.

With CN1c2ccc(-c3cccc(F)c3)cc2[C@@H]2[C@@H](CCN2C(=O)c2ccc3c(c2)OCO3)[C@H]1CO the “activity change, negative = inhibition” value (at 10 µM (top of the series)) was “inactive”.

In the case of COc1ccc(NC(=O)N2CC[C@@H]3[C@@H](CO)N(C)c4ccc(-c5ccc(F)cc5)cc4[C@@H]32)cc1, the “activity change, negative = inhibition” value (at 10 µM (top of the series)) is reported as “inactive”.

Work on CC(=O)c1ccc(N2CCCN(C(=O)c3ccc4c(c3)OCO4)CC2)cc1 yielded an AC50 of 289 nM and an AC50 [2] of 289 nM.

Work on CC(=O)c1ccc(N2CCN(C(=O)c3ccccc3Cl)CC2)cc1 yielded an AC50 of 8240 nM and an AC50 [1] of 8240 nM.

From PubChem BioAssay AID743357 (Broad Institute, 2014)
